Measurements as given in patent publication US8592466B2, “Methods for treating conditions caused by higher-than-normal dopaminergic activity in basal ganglia” (Neuropill, Inc., priority 2008, dated 2013).

Test: Phase I cocaine interaction study: heart rate and blood pressure
Details: cocaine 20 mg and 40 mg i.v., most P-values<0.05

For COC(=O)[C@H]1[C@@H](OC(=O)c2ccccc2)C[C@@H]2CC[C@H]1N2C [cocaine, reference compound], the “HR/SBP/DBP after cocaine infusion” value was “significant elevation”.
